Measurements published in patent US5962531A, “5-aroylnaphthalene derivatives as anti-inflammatory agents” (Syntex (U.S.A.) Inc., priority 1998, dated 1999).

What was measured:
[1] = test system: PGE2; experiment: Inhibition of eicosanoid (prostaglandin E2) synthesis in vivo, carrageenan air-pouch model in rats; design: species or system rat; details: oral, male rats
Protocol: In this assay, an air-pouch is created in the rat and the PGE2 levels in the air-pouch exudate are measured by enzyme immunoassay. Briefly, male rats were anesthetized using a 60:40 CO2 :O2 mixture and subsequently injected subcutaneously with 20 ml of sterilized air, under aseptic conditions, in the proximal area of the dorsum. This injection of sterile air causes the creation of a subcutaneous "air pouch". The next day, a further 10 ml of sterile air was injected into the previously formed pouch using the same technique. […] Control rats received vehicle alone. After 30 minutes, 5 ml of a 0.5% solution of carrageenan (Sigma, Lambda Type IV) was injected into the air pouch. The rats were euthanized 3 or 6 h after the compound administration. […] The total exudate volume was recorded, and the samples were analyzed for PGE2 and 6-keto PGF1 by ELISA (Titerzyme®, PerSeptive Diagnostics, Boston, Mass.) and TxB2 by radioimmuno assay (New England Nuclear Research, Boston, Mass., Catalog No. NEK-037), according to the manufacturer's directions.
The mean concentrations of PGE2 were calculated for each group. The anti-inflammatory activity of test materials is expressed as the percent inhibition of PGE2 formation in the test group relative to the control group.

[2] = test system: Alzheimer's patients; details: Rogers, J., et. al., Neurology, 43, 1609, (1993); cited from earlier work
[3] = molecular target: T1, COX II (Homo sapiens, UniProt P35354); experiment: Inhibition of COX II in vitro (radiometric assay, partially purified enzyme); assay type: biochemical
T1 construct: made in house; baculovirus-infected insect cells according to the cited Barnett et al. 1994 (own knowledge)
T1 sequence (P35354 18-604): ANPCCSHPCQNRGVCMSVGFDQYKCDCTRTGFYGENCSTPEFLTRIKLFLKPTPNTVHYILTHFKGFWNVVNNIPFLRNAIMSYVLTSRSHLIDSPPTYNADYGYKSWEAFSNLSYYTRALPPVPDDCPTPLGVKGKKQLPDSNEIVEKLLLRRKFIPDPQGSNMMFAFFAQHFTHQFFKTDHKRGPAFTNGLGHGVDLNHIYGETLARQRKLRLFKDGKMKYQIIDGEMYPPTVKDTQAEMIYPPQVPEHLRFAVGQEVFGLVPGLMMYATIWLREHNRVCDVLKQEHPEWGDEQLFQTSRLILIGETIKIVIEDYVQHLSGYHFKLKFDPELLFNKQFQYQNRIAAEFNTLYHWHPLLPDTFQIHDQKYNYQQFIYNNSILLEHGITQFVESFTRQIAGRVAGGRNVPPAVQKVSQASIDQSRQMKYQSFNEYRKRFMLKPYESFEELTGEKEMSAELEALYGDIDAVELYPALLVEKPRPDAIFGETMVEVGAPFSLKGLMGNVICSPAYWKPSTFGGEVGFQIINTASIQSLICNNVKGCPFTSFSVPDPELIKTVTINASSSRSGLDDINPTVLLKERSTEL
Protocol: (§1) The COX I and COX II inhibitory activity of compounds of this invention in vitro was determined using partially purified COX I and COX II enzymes, prepared as described in J. Barnett et. al., Biochim. Biophys.
(§2) COX I and COX II samples were diluted with Tris-HCl buffer (SOmM Tris-HCl, pH 7.9) containing 2 mM EDTA and 10% glycerol and reconstituted by incubating first with 2 mM phenol for 5 minutes and then with 1 micromolar hematin for an additional 5 minutes. 125 μl of the reconstituted COX I or COX II enzyme were preincubated for 10 minutes at room temperature in a shaking water bath with the compounds of the invention dissolved in 2-15 μl of DMSO or the carrier vehicles (control samples). The enzyme reaction was initiated by adding 25 μl of 1-[14 C]arachidonic acid (80,000-100,000 cpm/tube; 20 micromolar final concentration) and the reaction was allowed to continue for an additional 45 seconds. The reaction was terminated by adding 100 μl of 2N HCl and 750 μl water. An aliquot (950 μl) of the reaction mixture was loaded onto a 1 ml C18 Sep-Pak column (J. T. Baker, Phillipsburg, N.J.) which had been previously washed with 2-3 ml methanol and equilibrated with 5-6 ml distilled water. Oxygenated products were quantitatively eluted with 3 ml of acetonitrile/water/acetic acid (50:50:0.1, v/v) and the radioactivity in the eluate determined in a scintillation counter.

[4] = molecular target: T2, COX I (Homo sapiens, UniProt P23219); experiment: Inhibition of COX I in vitro (radiometric assay, partially purified enzyme); assay type: biochemical
T2 construct: made in house; baculovirus-infected insect cells according to the cited Barnett et al. 1994 (own knowledge)
T2 sequence (P23219 24-599): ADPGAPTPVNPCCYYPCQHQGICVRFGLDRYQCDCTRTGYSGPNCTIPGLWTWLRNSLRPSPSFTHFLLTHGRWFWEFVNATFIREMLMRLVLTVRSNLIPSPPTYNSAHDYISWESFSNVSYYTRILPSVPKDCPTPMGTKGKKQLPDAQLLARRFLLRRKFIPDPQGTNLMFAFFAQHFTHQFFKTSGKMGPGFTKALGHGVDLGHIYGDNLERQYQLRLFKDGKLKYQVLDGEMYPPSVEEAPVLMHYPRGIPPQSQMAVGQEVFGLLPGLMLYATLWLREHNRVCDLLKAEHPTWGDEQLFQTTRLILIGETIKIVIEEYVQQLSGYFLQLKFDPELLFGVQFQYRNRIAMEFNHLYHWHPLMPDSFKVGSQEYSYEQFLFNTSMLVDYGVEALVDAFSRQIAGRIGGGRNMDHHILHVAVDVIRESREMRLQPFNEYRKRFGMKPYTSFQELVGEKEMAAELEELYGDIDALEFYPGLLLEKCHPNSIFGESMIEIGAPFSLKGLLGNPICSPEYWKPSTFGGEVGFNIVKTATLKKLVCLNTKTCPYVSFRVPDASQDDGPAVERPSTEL
Protocol: as §1, §2

[5] = test system: carrageenan-induced paw edema; experiment: Inhibition of carrageenan-induced paw edema in the rat; assay type: in vivo; details: oral, female rats
Protocol: The anti-inflammatory activity of compounds of this invention was determined by measuring the inhibition of carrageenan-induced paw edema in the rat, using a modification of the method described in Winter C. A. et al., "Carrageenan-Induced Edema in Hind Paw of the Rat as an Assay for Anti-inflammatory Drugs" Proc. Soc. Exp. Biol. Med. 111, 544-547, (1962). This assay has been used as a primary in vivo screen for anti-inflammatoryactivity of most NSAIDs, and is considered predictive of human efficacy. Briefly, test materials were administered orally to female rats in a volume of 1 ml prepared as solutions or suspensions in an aqueous vehicle containing 0.9% sodium chloride, 0.5% sodium carboxymethyl-cellulose, 0.4% polysorbate 80, 0.9% benzyl alcohol and 97.3% distilled water. Control rats received vehicle alone. After 1 h 0.05 ml of a 0.5% solution of Carrageenan (Type IV Lambda, Sigma Chemical Co.) in 0.9% saline was injected into the subplantar region of the right hind paw. Three hours later the rats were euthanized in a carbon dioxide atmosphere; hind paws were removed by severing at the tatso-crural joint; and the left and right paws were weighed. The increase in weight of the right paw over the left paw was obtained for each animal and the mean increases were calculated for each group. The anti-inflammatory activity of the test materials is expressed as the percent inhibition of the increase in hind paw weight of the test group relative to the vehicle dosed control group.
The anti-inflammatory activities (expressed as % inhibition) of some of the compounds of the invention were: […]

SMILES	IC50 [3] [µM]	IC50 [4] [µM]	% Inhibition of paw edema ([5]; 30 mg/Kg) [%]	further results
COc1ccc2c(c1)c(CC(=O)O)c(C)n2C(=O)c1ccc(Cl)cc1 [Indomethacin, reference compound]				% Inhibition of air pouch PGE2 formation ([1]; 2-5 mg/Kg): > 70%; inhibition of cognitive decline of Alzheimer's patients [2]: inhibit the cognitive decline of Alzheimer's patients
CS(=O)(=O)c1ccc2c(C(=O)c3ccc(F)cc3)c(O)ccc2c1 [compound 92, 5-(4-fluorobenzoyl)-6-hydroxy-2-methylsulfonylnaphthalene]	5.9	646	19.88	
CS(=O)(=O)c1ccc2c(C(=O)c3ccccc3)c(O)ccc2c1 [compound 93, 5-benzoyl-6-hydroxy-2-methylsulfonylnaphthalene]	7.84	436	6.25	
CS(=O)(=O)c1ccc2c(C(=O)c3ccccc3F)c(C#N)ccc2c1 [compound 99, 5-(2-fluorobenzoyl)-6-cyano-2-methylsulfonylnaphthalene]	0.5	> 100		% Inhibition of air pouch PGE2 formation ([1]; 3 mg/Kg): 86%; % Inhibition of paw edema ([5]; 10 mg/Kg): 38%
COc1ccc2cc(S(N)(=O)=O)ccc2c1C(=O)c1ccc(F)cc1C(F)(F)F [compound 42]	2	40.9		
Cc1ccc2cc(S(N)(=O)=O)ccc2c1C(=O)c1ccc(F)cc1 [compound 65, 5-(4-fluorobenzoyl)-6-methyl-2-naphthalenesulfonamide]	0.7	300		% Inhibition of air pouch PGE2 formation ([1]; 2 mg/Kg): 50%; % Inhibition of paw edema ([5]; 12 mg/Kg): 30%
CS(=O)(=O)c1ccc2c(C(=O)c3ccc(F)cc3)c(C#N)ccc2c1 [compound 96, 5-(4-fluorobenzoyl)-6-cyano-2-methylsulfonylnaphthalene]	0.8	> 100	38	% Inhibition of air pouch PGE2 formation ([1]; 1 mg/Kg): 90%
COc1ccc2cc(S(C)(=O)=O)ccc2c1C(=O)c1ccc(C)cc1 [compound 103]	1.5	97		
CS(=O)(=O)c1ccc2c(C(=O)c3ccccc3)c(C#N)ccc2c1 [compound 97, 5-benzoyl-6-cyano-2-methylsulfonylnaphthalene]	0.8	> 100	40	% Inhibition of air pouch PGE2 formation ([1]; 3 mg/Kg): 90%
COc1ccc2cc(S(N)(=O)=O)ccc2c1C(=O)c1ccccc1F [compound 14, 5-(2-fluorobenzoyl)-6-methoxy-2-naphthalenesulfonamide]	0.076	47.7		% Inhibition of air pouch PGE2 formation ([1]; 10 mg/Kg): 58.8%
COc1ccc2cc(S(N)(=O)=O)ccc2c1C(=O)c1ccccc1Br [compound 17]			19.56	
COc1ccc2cc(S(N)(=O)=O)ccc2c1C(=O)c1ccc(F)cc1F [compound 20]	0.45	6	33.85	% Inhibition of air pouch PGE2 formation ([1]; 10 mg/Kg): 100%
COc1ccc2cc(S(N)(=O)=O)ccc2c1C(=O)c1ccc(C)cc1 [compound 4, 5-(4-methylbenzoyl)-6-methoxy-2-naphthalenesulfonamide]	0.84	2.8		% Inhibition of air pouch PGE2 formation ([1]; 10 mg/Kg): 74.6%; % Inhibition of paw edema ([5]; 10 mg/Kg): 26.41%
COc1ccc2cc(S(C)(=O)=O)ccc2c1C(=O)c1ccc(F)cc1 [compound 91, 5-(4-fluorobenzoyl)-6-methoxy-2-methylsulfonylnaphthalene]	0.92	90.8		% Inhibition of air pouch PGE2 formation ([1]; 30 mg/Kg): 58.1%; % Inhibition of paw edema ([5]; 10 mg/Kg): 29.48%
CCOc1ccc2cc(S(N)(=O)=O)ccc2c1C(=O)c1ccc(F)cc1 [compound 5]	0.56	0.46	27.49	
COc1ccc2cc(S(N)(=O)=O)ccc2c1C(=O)c1ccccc1 [compound 23, 5-benzoyl-6-methoxy-2-naphthalenesulfonamide]				% Inhibition of air pouch PGE2 formation ([1]; 10 mg/Kg): 70.7%
N#Cc1ccc2cc(S(N)(=O)=O)ccc2c1C(=O)c1ccc(F)cc1 [compound 64, 5-(4-fluorobenzoyl)-6-cyano-2-naphthalenesulfonamide]	0.7	0.9		% Inhibition of air pouch PGE2 formation ([1]; 0.5 mg/Kg): 50%; % Inhibition of paw edema ([5]; 6 mg/Kg): 30%
COc1ccc2cc(S(C)(=O)=O)ccc2c1C(=O)c1ccccc1 [compound 94, 5-benzoyl-6-methoxy-2-methylsulfonylnaphthalene]	2.43	805		% Inhibition of air pouch PGE2 formation ([1]; 10 mg/Kg): 17.6%
COc1ccc2cc(S(N)(=O)=O)ccc2c1C(=O)c1ccc(F)cc1 [compound 1, 5-(4-fluorobenzoyl)-6-methoxy-2-naphthalenesulfonamide]	0.51	20		% Inhibition of air pouch PGE2 formation ([1]; 10 mg/Kg): 92%; % Inhibition of paw edema ([5]; 10 mg/Kg): 29.94%
COc1ccc2cc(S(N)(=O)=O)ccc2c1C(=O)c1cccc(F)c1 [compound 15, 5-(3-fluorobenzoyl)-6-methoxy-2-naphthalenesulfonamide]	0.68	62.5		
CS(=O)(=O)c1ccc2c(C(=O)c3ccc(Cl)cc3)c(C#N)ccc2c1 [compound 104, 5-(4-chlorobenzoyl)-6-cyano-2-methylsulfonylnaphthalene]	0.57	93	33	% Inhibition of air pouch PGE2 formation ([1]; 1 mg/Kg): 76.5%
CS(=O)(=O)c1ccc2c(C(=O)c3ccc(Cl)cc3)c(Cl)ccc2c1 [compound 100]	0.25	> 100		% Inhibition of air pouch PGE2 formation ([1]; 3 mg/Kg): 63%
CS(=O)(=O)c1ccc2c(C(=O)c3ccc(F)cc3)cccc2c1 [compound 95, 5-(4-fluorobenzoyl)-2-methylsulfonylnaphthalene]	2.73	1000	15.5	
NS(=O)(=O)c1ccc2c(C(=O)c3ccc(F)cc3)c(Cl)ccc2c1 [compound 66, 5-(4-fluorobenzoyl)-6-chloro-2-naphthalenesulfonamide]	0.3	100		% Inhibition of air pouch PGE2 formation ([1]; 1 mg/Kg): 50%; % Inhibition of paw edema ([5]; 12 mg/Kg): 30%
